Measured values from patent publication US20050009124A1, “Assays for detection of phosphoinositide kinase and phosphatase activity” (Echelon Biosciences Incorporated, priority 2001, published 2005).

Columns and labels:
GST-GRP1-PH = biological target: T1, GST-GRP1-PH (Homo sapiens, UniProt O43739); experiment: Competitive FP assay, displacement of fluorescent tracer from GST-GRP1-PH; format: binding; conditions: amounts over 100-fold greater than PI(3,4,5)P3
T1 construct: The PH domain of GRP1 (general receptor for phosphoinositides) was used as a detector for PI(3,4,5)P3
T1 sequence (O43739 264-381 limits assumed): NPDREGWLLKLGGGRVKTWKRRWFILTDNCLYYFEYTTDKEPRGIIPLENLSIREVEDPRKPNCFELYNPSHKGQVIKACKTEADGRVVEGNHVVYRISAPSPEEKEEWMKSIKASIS
Method: In order to use these reagents in a competitive FP assay, unlabeled phosphoinositide products of an enzymatic reaction must be able to successfully compete with the labeled tracer for interaction with the binding proteins. In addition, the level of cross-reactivity of binding proteins with the phosphoinositides used as enzyme substrates should be minimal. To examine the suitability of these phosphoinositide binding proteins for this application, competition assays were performed using optimal amounts of lipid binding proteins and fluorescent tracers, mixed with increasing amounts of diC8-phosphoinositide competitors.
The sensitivity of this approach for detecting conversion of PI(4,5)P2 to PI(3,4,5)P3 was evaluated using GST-GRP1-PH protein and FAM and BODIPY®-TMR labeled tracers. Competition assays in which both diC8-PI(3,4,5)P3 and diC8-PI(4,5)P2 were added at increasing concentrations were performed.

recombinant PI 3-Kinaseα = recombinant PI 3-Kinaseα (Homo sapiens, UniProt P42336); experiment: Competitive FP assay for PI 3-Kinase activity; format: biochemical; conditions: substrate conversion at constant enzyme levels
From the text: The FP assays developed for the detection of PI 3-Kinase and SHIP2 activity were designed as competitive assays in which the enzyme product would compete with a fluorescently labeled synthetic phosphoinositide or inositol phosphate tracer for binding to a specific phosphoinositide binding protein. As the products of the enzymatic reaction increase, the soluble phosphoinositide products compete for the interaction of the binding protein and the fluorescent tracer, leading to a decrease in mP values as the amount of depolarized free tracer increases. Thus, changes in polarization should be inversely proportional to the degree of enzyme activity.
These assays involve four steps. First, the enzyme and substrate phosphoinositide are combined in an appropriate reaction buffer and the reaction is allowed to proceed. […] Finally, polarization values are measured to determine the extent of enzyme activity in the reaction.
The ability of FP competitive assays to detect the production of phosphoinositide products of PI 3-Kinaseα activity was tested using recombinant PI 3-Kinaseα. […] The production of PI(3,4,5)P3 was detected as a decrease in mP values as enzyme products compete with I(1,3,4,5)P4-BODIPY®-TMR for interaction with the binding protein.

[1] = system: PI(4,5)P2-specific LRP derived from PLCδ; experiment: AlphaScreen binding and competition with PI(4,5)P2-specific LRP; conditions: biotinylated PI(4,5)P2 and PLCδ kept constant
Method: The present invention provides ALPHAScreen™ assays to detect specific binding and competition of phosphoinositide diphosphates using antibodies or LRPs. This approach can be used in competitive assays for the detection of PI(3,4)P2 and PI(4,5)P2 produced by lipid phosphatase or kinase activity. […] Increasing amounts of unlabeled PI(4,5)P2 or PI(3,4,5)P3 were added while levels of PLCδ and PI(4,5)P2 were kept constant. PI(4,5)P2 competition is approximately 90-fold greater than PI(3,4,5)P3 competition, indicating a high degree of specificity for recognition of PI(4,5)P2.

SMQ-Grp1 = biological target: T2, SMQ-Grp1 (Homo sapiens, UniProt O43739); experiment: Competitive dequenching fluorogenic assay with SMQ-Grp1; format: binding; conditions: increasing amounts of competitor, compared with diC8 PI(3,4,5)P3
T2 construct: small molecular quencher (Dabcyl, QSY 7 or QSY 9); made in house
T2 sequence (O43739 1-400): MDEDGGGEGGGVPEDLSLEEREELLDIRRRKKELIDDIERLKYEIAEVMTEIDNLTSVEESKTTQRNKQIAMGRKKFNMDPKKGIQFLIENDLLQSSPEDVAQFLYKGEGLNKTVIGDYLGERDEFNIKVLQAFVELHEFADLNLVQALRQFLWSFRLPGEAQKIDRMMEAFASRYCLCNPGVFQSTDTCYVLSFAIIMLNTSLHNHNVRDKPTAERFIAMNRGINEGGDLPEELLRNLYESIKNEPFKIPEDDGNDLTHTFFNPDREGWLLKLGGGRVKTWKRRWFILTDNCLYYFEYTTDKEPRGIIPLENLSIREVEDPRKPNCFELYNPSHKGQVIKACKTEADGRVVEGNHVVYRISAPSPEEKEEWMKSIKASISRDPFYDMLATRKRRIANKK
Method: The fluorogenic assays were set up in a black 384-well plate. The combination of 100 nM, 10 nM and 1 nM of SMQ-Grp1 conjugate was incubated with 100 nM, 50 nM and 25 nM BODIPY®-FL-labeled PI(3,4,5)P3. The total assay volume was […] in a PBS buffer at a pH of 7.5. The assay mixture was incubated in the dark for one hour at 25° C. The plate was then transferred to an Alpha Fusion plate reader and read with a 485/520 nm filter. […] For example, if BODIPY®-FL-PI(3,4,5)P3 is fixed at 25 nM, increasing the amount of Dabcyl-Grp1 conjugate (from 1 nM to 100 nM) caused decreasing amounts of fluorescence (FIG. 24). Similar fluorescence quenching profiles were shown for QSY 7-Grp1 and QSY 9-Grp1.
The quenching effects of BODIPY®-FL-PI(3,4,5)P3 by SMQ-Grp1 were specific. diC8 PI(3,4,5)P3 as a competitor antagonized the fluorescence quenching effect of BODIPY®-FL-PI(3,4,5)P3 by SMQ-Grp1 in a dose-response manner. diC8 PI(3,4,5)P3 was used at varying concentrations to compete with BODIPY®-FL-PI(3,4,5)P3 for binding to the SMQ-Grp1 conjugate. […] In each bar graph in FIG. 25, from the right to the left, the bars show the fluorescence reading of PBS as the background, the diC8 PI(3,4,5)P3 only, the SMQ-Grp1 conjugate only, BODIPY®-FL-PI(3,4,5)P3 only, Grp1-SMQ plus BODIPY®-FL-PI(3,4,5)P3, Grp1-SMQ plus BODIPY®-FL-PI(3,4,5)P3 with 10 pmol of diC8 PI(3,4,5)P3 as the competitor, Grp1-SMQ plus BODIPY®-FL-PI(3,4,5)P3 with 100 pmol of diC8 PI(3,4,5)P3 as the competitor, Grp1-SMQ plus BODIPY®-FL-PI(3,4,5)P3 with 1000 pmol of diC8 PI(3,4,5)P3 as the competitor, and Grp1-SMQ plus BODIPY®-FL-PI(3,4,5)P3 with 10000 pmol of diC8 PI(3,4,5)P3 as competitor. […]
Fluorogenic assays were also used to compare competition of diC8 PI(3,4,5)P3 to PI(4,5)P2 and PI(3)P. With increasing amounts of PI(3,4,5)P3 the signal begins to increase, indicating competition, whereas as PI(4,5)P2 and PI(3)P show little change, indicating less competition. […] The production (or presence) of PI(3,4,5)P3 in this assay system corresponds to the elevation of the fluorescence signal.

Sequence of recombinant PI 3-Kinaseα (P42336 whole entry): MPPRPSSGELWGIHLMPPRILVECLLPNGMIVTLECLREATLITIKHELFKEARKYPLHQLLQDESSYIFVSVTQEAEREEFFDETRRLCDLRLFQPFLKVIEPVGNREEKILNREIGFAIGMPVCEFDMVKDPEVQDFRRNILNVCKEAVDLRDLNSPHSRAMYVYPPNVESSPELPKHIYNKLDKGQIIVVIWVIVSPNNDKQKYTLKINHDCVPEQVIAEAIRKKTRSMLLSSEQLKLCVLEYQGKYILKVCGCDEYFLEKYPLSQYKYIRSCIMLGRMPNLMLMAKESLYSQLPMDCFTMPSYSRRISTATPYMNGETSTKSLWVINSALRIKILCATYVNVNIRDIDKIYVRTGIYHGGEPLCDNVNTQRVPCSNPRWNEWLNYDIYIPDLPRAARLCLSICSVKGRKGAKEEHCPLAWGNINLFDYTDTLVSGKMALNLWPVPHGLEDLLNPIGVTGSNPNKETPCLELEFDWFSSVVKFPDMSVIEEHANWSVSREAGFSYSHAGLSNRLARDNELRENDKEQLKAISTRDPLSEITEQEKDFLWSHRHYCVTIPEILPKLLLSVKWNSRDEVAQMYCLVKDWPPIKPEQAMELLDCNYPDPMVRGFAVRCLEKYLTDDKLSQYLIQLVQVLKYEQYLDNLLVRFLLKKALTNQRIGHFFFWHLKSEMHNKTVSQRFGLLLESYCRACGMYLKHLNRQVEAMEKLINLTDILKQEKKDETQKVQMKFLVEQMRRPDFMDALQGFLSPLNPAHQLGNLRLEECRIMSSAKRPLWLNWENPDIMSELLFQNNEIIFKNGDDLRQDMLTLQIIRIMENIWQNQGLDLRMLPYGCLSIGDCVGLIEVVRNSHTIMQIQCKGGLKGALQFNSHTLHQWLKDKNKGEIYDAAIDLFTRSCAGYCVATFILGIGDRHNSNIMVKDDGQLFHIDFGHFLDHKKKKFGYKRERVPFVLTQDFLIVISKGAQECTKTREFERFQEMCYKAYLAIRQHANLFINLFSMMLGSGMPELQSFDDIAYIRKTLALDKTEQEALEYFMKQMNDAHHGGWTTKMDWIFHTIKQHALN
Sequence of recombinant PI 3-Kinaseα (P27986 whole entry partner): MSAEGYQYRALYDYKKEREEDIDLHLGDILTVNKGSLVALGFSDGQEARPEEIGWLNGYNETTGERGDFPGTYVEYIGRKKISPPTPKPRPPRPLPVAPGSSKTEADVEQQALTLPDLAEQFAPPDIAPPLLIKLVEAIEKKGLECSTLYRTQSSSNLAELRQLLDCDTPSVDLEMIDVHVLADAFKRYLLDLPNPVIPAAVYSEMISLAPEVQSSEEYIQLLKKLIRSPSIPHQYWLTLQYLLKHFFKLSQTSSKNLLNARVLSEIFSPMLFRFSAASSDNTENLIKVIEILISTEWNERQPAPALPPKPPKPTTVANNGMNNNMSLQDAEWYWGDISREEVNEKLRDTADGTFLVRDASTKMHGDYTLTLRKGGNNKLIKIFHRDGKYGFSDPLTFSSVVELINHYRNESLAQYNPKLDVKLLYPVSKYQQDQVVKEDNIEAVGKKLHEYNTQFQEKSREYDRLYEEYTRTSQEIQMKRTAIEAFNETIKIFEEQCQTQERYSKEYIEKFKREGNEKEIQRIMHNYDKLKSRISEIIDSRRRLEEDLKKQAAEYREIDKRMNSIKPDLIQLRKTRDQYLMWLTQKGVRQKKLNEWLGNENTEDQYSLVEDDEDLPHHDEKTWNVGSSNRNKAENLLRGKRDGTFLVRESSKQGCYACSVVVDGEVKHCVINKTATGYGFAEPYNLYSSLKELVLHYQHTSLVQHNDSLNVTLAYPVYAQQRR

effect on interaction of binding protein with fluorescent tracers (GST-GRP1-PH)	Km (recombinant PI 3-Kinaseα) [µM]	competition relative to PI(3,4,5)P3 competition [1]	change of fluorescence signal (competition) (SMQ-Grp1)	Molecule
minimal effect	~3	–	–	CCCCCCCC(=O)OC[C@H](COP(=O)(O)O[C@@H]1[C@H](O)[C@H](O)[C@@H](OP(=O)(O)O)[C@H](OP(=O)(O)O)[C@H]1O)OC(=O)CCCCCCC [diC8-PI(4,5)P2]
–	–	approximately 90 fold	little change	PI(4,5)P2
